Format in all cases: cell-based
One test relates to Acinetobacter baumannii. As to the kind of experiment: Disk diffusion test on Acinetobacter baumannii. The text has this:
(§1) Applicants undertook two rounds of studies. […] When agar plating was required, both rounds of Applicants' studies were undertaken using similar disk diffusion methods on bacteria grown on agar substrates in Petri dishes. These methods conform to those prescribed by the Clinical & Laboratory Standards Institute (https://clsi.org). […]

Another test deals with Pseudomonas aeruginosa. As to the kind of experiment: Disk diffusion test on Pseudomonas aeruginosa.
Description: as §1

A further test concerns Klebsiella pneumoniae. As to the kind of experiment: Disk diffusion test on Klebsiella pneumoniae. The following applies: for antibacterial activity of the agent by itself: single agent disk, ceftazidime 30 μg, meropenem 10 μg, Compound C 15 μg. The text has this:
(§2) Applicants undertook two rounds of studies. The results of the first round are illustrated in FIGS. 1A-9B and discussed in the related text. The results of the second round of studies are illustrated in FIGS. 10-23 and discussed in the related text. When agar plating was required, both rounds of Applicants' studies were undertaken using similar disk diffusion methods on bacteria grown on agar substrates in Petri dishes. These methods conform to those prescribed by the Clinical & Laboratory Standards Institute (https://clsi.org).
(§3) Disk Diffusion tests with beta-lactam antibiotics with and without the beta-lactamase inhibitor of FIG. 1A. Closely spaced disks disclose possible synergistic or inhibitory effects between the antibiotics and the compound of FIG. 1A (labeled in FIGS. 4A-9B as Compound C). The distances between disks show the effectiveness of the possible synergy. […] Each disk contains either the compound of FIG. 1A or an antibiotic (one of FIGS. 3A-3D), or the compound of […] and an antibiotic (one of FIGS. 3A-3D). When a disk with the compound of FIG. 1A is in proximity to a disk with an antibiotic both agents diffuse into the bacterial growth medium, allowing us to observe the area where both agents are present at the same time. These disk diffusion tests were evaluated with the following:
(§4) As noted above, Applicants' studies were undertaken using similar disk diffusion methods on bacteria grown on agar substrates in Petri dishes. These methods conform to those prescribed by the Clinical & Laboratory Standards Institute (https://clsi.org).

In another test the test system is Citrobacter freundii. The test is described as follows: Disk diffusion test on Citrobacter freundii.
Description: as §1

Test [1] has as its system methicillin-resistant coagulase-negative Staphylococcus sps. (MRCoNS). As to the kind of experiment: Disk diffusion test on MRCoNS. The settings on record: for antibacterial activity of the agent by itself: single agent disk, penicillin G 10 μg, cefoxitin 30 μg, Compound C 15 μg.
Description: as §2, §3, §4

Another test concerns Escherichia coli. The test is described as follows: Disk diffusion test on Escherichia coli.
Description: as §1

In test [2] the test system is MSSA (methicillin-sensitive Staphylococcus aureus). As to the kind of experiment: Disk diffusion test on Staphylococcus aureus (MSSA). The following applies: for action of the antibiotic by itself on the Staphylococcus aureus strain: used either separately or in combination.
Description: as §1

Where [3] appears, read: in combination with ceftazidime.
The mark [4] stands for this setting: in combination with piperacillin.
Where [5] appears, read: in combination with ceftazidime (second round).
Where [6] appears, read: in combination with meropenem (second round).
[7] abbreviates: in combination with ceftriaxone.

The structures appear in SMILES notation. Entries after “also recorded” stand apart in the source; their conditions may differ.

For the compound `OB(O)c1cc(F)cc(F)c1F` [2,3,5-Trifluorophenylboronic acid], the “effectiveness of the combination with antibiotic” value (from here on “effectiveness of the combination”) in the test on Acinetobacter baumannii (in combination with cefepime), in the test on Acinetobacter baumannii (setting [3]), with Acinetobacter baumannii (in combination with meropenem), in the test on Pseudomonas aeruginosa (in combination with aztreonam), with Pseudomonas aeruginosa (in combination with cefepime) and with Pseudomonas aeruginosa (setting [3]) was “enhanced effectiveness” throughout. Further, the “effectiveness of the combination” value with Pseudomonas aeruginosa (in combination with meropenem) and with Pseudomonas aeruginosa (setting [4]) was “enhanced effectiveness” each time.
Take `Nc1cc(B(O)O)cc(C(=O)O)c1` [3-Amino-5-carboxylphenylboronic acid]: the “effectiveness of the combination” value in the test with Acinetobacter baumannii (in combination with cefepime) is on record as “enhanced effectiveness”.
On to `O=C(O)c1cccc(B(O)O)c1F` [3-Carboxy-2-fluorophenylboronic acid], for which the “effectiveness of the combination” value in the test on Klebsiella pneumoniae (in combination with cefepime) is “enhanced effectiveness”; in the test with Klebsiella pneumoniae (setting [5]), “enhanced effectiveness”; in the test with Klebsiella pneumoniae (setting [6]), “enhanced effectiveness”; in the test with Citrobacter freundii (in combination with meropenem), “partial effectiveness”; in the test with Acinetobacter baumannii (in combination with cefepime) it was “enhanced effectiveness”; in the test with Acinetobacter baumannii (setting [3]) it was “enhanced effectiveness”. The “effectiveness of the combination” value is “enhanced effectiveness” with Acinetobacter baumannii (in combination with meropenem), “partial effectiveness” with Pseudomonas aeruginosa (in combination with cefepime), “partial effectiveness” with Pseudomonas aeruginosa (in combination with meropenem) and “partial effectiveness” in the test with Pseudomonas aeruginosa (setting [4]).
In the case of `O=C(O)c1cc(B(O)O)ccc1Cl` [5-Borono-2-chlorobenzoic acid], the “effectiveness of the combination” value in the test on Klebsiella pneumoniae (in combination with cefepime), with Klebsiella pneumoniae (setting [5]), with Acinetobacter baumannii (in combination with cefepime), with Acinetobacter baumannii (setting [3]) and with Acinetobacter baumannii (in combination with meropenem) was “enhanced effectiveness” in each case.
As for `O=C(O)c1cc(B(O)O)ccc1F` [5-Borono-2-fluorobenzoic acid], the “effectiveness of the combination” value with Acinetobacter baumannii (in combination with cefepime), in the test on Acinetobacter baumannii (in combination with meropenem), in the test with Pseudomonas aeruginosa (in combination with aztreonam), with Pseudomonas aeruginosa (in combination with cefepime) and in the test with Pseudomonas aeruginosa (setting [4]) was “enhanced effectiveness” each time.
For the compound `O=C(O)c1ccc(Cl)c(B(O)O)c1` [5-Carboxy-2-chlorophenylboronic acid], the “effectiveness of the combination” value in the test with Klebsiella pneumoniae (in combination with cefepime) was “enhanced effectiveness”; with Klebsiella pneumoniae (setting [5]), “enhanced effectiveness”; with Citrobacter freundii (in combination with meropenem), “partial enhanced effectiveness”; with Acinetobacter baumannii (in combination with cefepime), “enhanced effectiveness”; in the test with Acinetobacter baumannii (setting [3]), “enhanced effectiveness”; in the test on Pseudomonas aeruginosa (in combination with meropenem), “enhanced effectiveness”. Also, in the test on Pseudomonas aeruginosa (setting [4]), the “effectiveness of the combination” value is listed as “enhanced effectiveness”.
With `O=C(O)c1ccc(F)c(B(O)O)c1` [5-Carboxy-2-fluorophenylboronic Acid], the “effectiveness of the combination” value in the test with Klebsiella pneumoniae (in combination with cefepime), in the test with Klebsiella pneumoniae (setting [5]), with Klebsiella pneumoniae (setting [6]), with Acinetobacter baumannii (in combination with cefepime), in the test with Acinetobacter baumannii (setting [3]) and with Acinetobacter baumannii (in combination with meropenem) was “enhanced effectiveness” in each case. Moreover, the “effectiveness of the combination” value with Pseudomonas aeruginosa (in combination with meropenem) was “enhanced effectiveness”; in the test on Pseudomonas aeruginosa (setting [4]) it was “proved effective”.
In the case of `CC1(C)OB(c2ccc(C(=O)O)s2)OC1(C)C` [5-Carboxythiophene-2-boronic acid pinacol ester], the “effectiveness of the combination” value (in test [1] (in combination with ampicillin); in test [1] (in combination with penicillin G (second round)); with Klebsiella pneumoniae (setting [5]); with Klebsiella pneumoniae (setting [7]); with Klebsiella pneumoniae (setting [6]); with Escherichia coli (in combination with amoxycillin)) was “enhanced effectiveness” throughout. Further, the “effectiveness of the combination” value in the test on Escherichia coli (setting [3]), with Escherichia coli (setting [7]), with Escherichia coli (in combination with meropenem), in the test on Citrobacter freundii (setting [3]), with Citrobacter freundii (setting [7]) and in the test with Citrobacter freundii (in combination with meropenem) was “enhanced effectiveness” throughout. The “effectiveness of the combination” value (with Acinetobacter baumannii (in combination with cefepime); in the test with Acinetobacter baumannii (setting [3]); with Acinetobacter baumannii (in combination with meropenem); in test [2] (in combination with ampicillin); in test [2] (in combination with penicillin G); in the test on Pseudomonas aeruginosa (in combination with aztreonam)) was “enhanced effectiveness” in each case. Besides, the entries for the “effectiveness of the combination” value in the test with Pseudomonas aeruginosa (in combination with cefepime) and with Pseudomonas aeruginosa (in combination with cefoperazone) were “partial effectiveness” and “enhanced effectiveness”, respectively.
On to `O=C(O)c1cc(B(O)O)cc([N+](=O)[O-])c1` [Benzoic acid, 3-borono-5-nitro], for which the “effectiveness of the combination” value with Acinetobacter baumannii (in combination with cefepime), in the test on Pseudomonas aeruginosa (in combination with aztreonam) and in the test with Pseudomonas aeruginosa (in combination with cefepime) was “enhanced effectiveness” each time.
As to `CO[C@@]1(NC(=O)Cc2cccs2)C(=O)N2C(C(=O)O)=C(COC(N)=O)CS[C@@H]21` [Cefoxitin, cefoxitin, reference compound], in test [1], the “antibacterial activity of the agent by itself” value (shortened to “antibacterial activity”) was “active on its own”.
Take `CC(C)(O/N=C(\C(=O)N[C@@H]1C(=O)N2C(C(=O)[O-])=C(C[n+]3ccccc3)CS[C@H]12)c1csc(N)n1)C(=O)O` [Ceftazidime, ceftazidime, reference compound]: in the test on Klebsiella pneumoniae, the “antibacterial activity” value is “very little antibacterial activity; also recorded: by itself is inactive”.
On the same count and under the same terms, for `C[C@@H](O)[C@H]1C(=O)N2C(C(=O)O)=C(S[C@@H]3CN[C@H](C(=O)N(C)C)C3)[C@H](C)[C@H]12` [Meropenem, meropenem, reference compound] the value was “by itself IS active”.
As for `CC1(C)S[C@@H]2[C@H](NC(=O)Cc3ccccc3)C(=O)N2[C@H]1C(=O)O` [Penicillin G, penicillin G, reference compound], the figures for the “antibacterial activity” value in test [1] and in test [1] (listed as penicillin G) were “no activity by itself” and “no antibacterial activity”, respectively. The “action of the antibiotic by itself on the Staphylococcus aureus strain” value in test [2] is reported as “completely resistant”.
Take `CC1(C)OB(c2cccc(CC(=O)O)c2)OC1(C)C` [Phenylacetic acid-3-boronic acid pinacol ester]: the “effectiveness of the combination” value in the test with Acinetobacter baumannii (in combination with cefepime), with Pseudomonas aeruginosa (in combination with aztreonam), with Pseudomonas aeruginosa (in combination with cefepime), in the test with Pseudomonas aeruginosa (in combination with meropenem) and in the test with Pseudomonas aeruginosa (setting [4]) was “enhanced effectiveness” each time.
With `CC1(C)S[C@@H]2[C@H](NC(=O)[C@H](N)c3ccc(O)cc3)C(=O)N2[C@H]1C(=O)O` [amoxicillin, reference compound], the “action of the antibiotic by itself on the Staphylococcus aureus strain” value in test [2] is “completely resistant”.
